Source: article PMC8558867, “Development of BromoTag: A “Bump-and-Hole”–PROTAC System to Induce Potent, Rapid, and Selective Degradation of Tagged Target Proteins” (Journal of Medicinal Chemistry, 2021)
Where “and” joins values, the source holds several entries; their conditions need not be identical. Equal entries are not always repeated. Where two headings read alike, the source gives them in different places.

Experiments:
HEK293 cells = assay: CellTiter-Glo 2.0 cell viability assay, HEK293; format: cell-based, human; details: HEK293, up to 1–10 μM
Protocol: All cell lines were treated with compounds in duplicate (triplicate for DMSO controls) at a 1× concentration in 0.1% DMSO. The compounds were serially diluted to produce a 7-point, 10-fold titration. The cells were treated with 50:100 μL of compound for a final concentration of 10 μM:10 pM in 0.1% DMSO. At the point of spectrometric analysis, cells were treated with 100 μL of Promega CellTiter-Glo 2.0 Cell Viability Assay reagent. The plates were subjected to an orbital shaker for 2 min to encourage lysis and left for a further 5 min to reach peak luminescence. Luminescence was then recorded on a BMG Labtech PHERAstar luminescence plate reader with recommended settings. Data extracted from this analysis was analyzed with GraphPad Prism (v. 8.2.0, GraphPad) and normalized to the DMSO vehicle control. The EC50 values were derived from these plots.

Plasma stability = format: in vitro ADME; details: mouse plasma, 37 °C, over 1 h
Protocol: Plasma stability studies were outsourced and undertaken by Shanghai ChemPartner Co., Ltd. Buffer preparation: a solution of 0.05 M sodium phosphate and 0.07 M NaCl buffer at pH 7.4 was made by dissolving 14.505 g/L of Na2HPO4·12H2O, 1.483 g/L of NaH2PO4·2H2O, and 4.095 g/L of NaCl in deionized water, and the pH was adjusted with phosphoric acid. Plasma preparation: frozen mouse plasma was thawed by placing at 37 °C quickly. The thawed plasma was centrifuged at 3000 rpm for 8 min to remove clots, and the supernatant was pooled to be used as the plasma in the experiment. The plasma (pH 7.4–8.0) was stored on ice until used. […] Plasma and spiking solutions were prewarmed at 37 °C for 5 min, and then 10 μL of prewarmed spiking solution B was added into the wells designated for all the time points (5, 15, 30, 45, and 60 min). For 0 min, 400 μL of acetonitrile-containing internal standards (imipramine, glipizide) was added to the wells of a 0 min plate, and then 90 μL of plasma was added. For the time points (0, 5, 15, 30, 45, and 60 min), 90 μL of prewarmed plasma was added at the initial stage. At 5, 15, 30, 45, and 60 min, 400 μL of acetonitrile containing the internal standard (imipramine, glipizide) was added to the wells of the corresponding plates to stop the reaction. […] Data was analyzed with Microsoft Excel.

[1] = system: proteome of heterozygous BromoTag-Brd2 HEK293 cells; assay: Multiplexed TMT labeling mass spectrometry proteomics; format: cell-based, human; details: 1 μM, 2 h
Protocol: To do this, we subjected our heterozygous BromoTag-Brd2 HEK293 cell line to a 1 μM treatment of 46, its non-degrading control 52, or vehicle (DMSO) for 2 h prior to harvest. The harvested lysate was then subjected to multiplexed tandem mass tag (TMT) labeling mass spectrometry to enable quantitative and unbiased analysis of protein levels in each condition.
CRISPR-modified BromoTag-Brd2 HEK293 cells (5 × 10^6) were seeded on a […] 24 h before treatment. The cells were treated with either DMSO, 1 μM AGB1, or 1 μM cis-AGB1. After 2 h of treatment, the cells were washed twice with PBS. The cells were lysed in 150 μL of 100 mM TEAB and 5% (w/v) sodium dodecyl sulfate. The lysate was sonicated for 10 s and then centrifuged at 15,000g for 5 min with the supernatant collected post-centrifugation. The samples were then quantified using a micro-BCA protein assay kit (Thermo Fisher Scientific); 300 μg of each sample was then reduced, alkylated, and then digested using the Strap mini protocol (protifi) as described by the manufacturer (protifi) with some modification. The samples were double-digested with trypsin (1:40) first overnight and then for another 6 h with the same ratio (1:40) in 50 mM TEAB buffer. The peptides were quantified using a quantitative fluorometric peptide assay (Thermo Fisher Scientific). […]

BromoTag-Brd2 = assay: Dose–response degradation assay (western blot, 6 h) in heterozygous BromoTag-Brd2 HEK293 cells; format: cell-based, human; details: 6 h; for DC50: read-out: DC50 of BromoTag-Brd2 degradation (DC50, 6h), single stereoisomers
Protocol: All dose–response degradation assays were performed on the genotype-verified heterozygous BromoTag-Brd2 HEK293 cell line. Heterozygous BromoTag-Brd2 HEK293 cells were plated at a density of 5 × 10^5 cells per well of a six-well healthy plate a day before initiation of the titration experiment. PROTAC compounds were dissolved in DMSO at a concentration of 10 mM; from these stock concentrations, PROTAC compounds were diluted to appropriate concentrations using DMSO in the range of 10 μM to 1 nM. […] Control compounds such as MZ1 and cis-MZ1 were similarly dissolved in DMSO to an appropriate concentration. […] The cells were washed twice with PBS before being harvested.
The membranes were blocked for 1 h prior to incubation with the primary antibodies using 5% Milk TBST. […] Following overnight incubation with the primary antibodies at 4 °C, the membranes were incubated with secondary antibodies (anti-rabbit, Abcam AB216773, 1:5000 or anti-mouse, Abcam AB216774, 1:5000) and hFABTM rhodamine anti-tubulin antibody (Biorad, 12004165, 1:10,000) for 1 h and then imaged with a Bio-Rad imager (LI-COR Biosciences). All western blots were analyzed for band intensities using Image Lab from Bio-Rad (LI-COR, Biosciences). The data extracted from these blots were then plotted and analyzed using Prism (v. 8.2.0, GraphPad).

[2] = eight-point 10 μM to 1 nM, mean ±S.E. of two repeats

CC[C@@H](C(=O)OCCOCCOCCOCC(=O)N[C@H](C(=O)N1C[C@H](O)C[C@H]1C(=O)NCc1ccc(-c2scnc2C)cc1)C(C)(C)C)[C@@H]1N=C(c2ccc(Cl)cc2)c2c(sc(C)c2C)-n2c(C)nnc21 [AGB1 (46), (S)-13-((2S,4R)-4-Hydroxy-2-((4-(4-methylthiazol-5-yl)benzyl)carbamoyl)pyrrolidine-1-carbonyl)-14,14-dimethyl-11-oxo-3,6,9-trioxa-12-azapentadecyl (R)-2-((S)-4-(4-chlorophenyl)-2,3,9-trimethyl-6H-thieno[3,2-f][1,2,4]triazolo[4,3-a][1,4]diazepin-6-yl)butanoate]
cytotoxicity (HEK293 cells): lack of cytotoxicity | plasma stability: levels remaining (Plasma stability): no significant changes | proteins significantly degraded among the 6621 proteins quantified [1]: only Brd2 was shown to be significantly degraded | pDC50 (Ab: Brd^4BD2 L387A) (BromoTag-Brd2; [2]): 7.8 ± 0.2 | pDC50 (Ab: BromoTag-Brd2) (BromoTag-Brd2; [2]): 7.9 ± 0.1 | DC50 (BromoTag-Brd2): 12.6 to 14.5 nM | DC50 (BromoTag-Brd2; listed as 46): 13 to 15 nM and ~13 nM
